Reference: patent publication US20260060970A1, “Use of a Therapeutic Agent with Phosphodiesterase-7 Inhibitory Activity for the Treatment and Prevention of Diseases Associated with Chronic Fatigue, Exhaustion and/or Exertional Intolerance” (MITODICURE GMBH, priority 2022, published 2026)

Key:
PDE7 = PDE7 enzymatic assay, IC50 determination (PDE7); assay type: biochemical; conditions: human recombinant enzyme, 0.1 μM FAM-cAMP, 30 min 25° C.
Procedure: (§1) The ability of compounds to inhibit PDE7 may be measured using the following assay protocal: Assay methods for IC50 determination of PDE7 and variants involve as enzyme source human recombinant insect Sf9 cells. The substrate is 0.1 μM FAM-cAMP and the vehicle is 1.0% DMSO or 1.0% PEG 400. Pre-incubation time and temperature are 15 minutes at 25° C. and incubation time and temperature are 30 minutes at 25° C. The incubation buffer consists of 10 mM Tris-HCl, PH 7.2, 10 mM MgCl2, 0.05% NaN3, and 0.1% phosphate-free BSA. The quantitation method used is spectrofluorimetric quantitation of Fluorescein-AMP-IMAP. IBMX reference standards are run as an integral part of each assay to ensure the validity of the results obtained. The IC50 is the concentration of the compound (inhibitor) tested in the assay which makes it possible to reduce the enzymatic activity of PDE7 by 50%. IC50 values are finally determined by a non-linear, least squares regression analysis using MathIQ™ (ID Business Solutions Ltd., UK).
(§2) The compounds to be tested as PDE7 inhibitors were initially dissolved in vehicle at a concentration of 30 mM. These solutions were tested as the highest test concentration and then further diluted in cascade always in a ratio of 1:6 to obtain solutions with the desired lower test concentrations. Each assay was carried out in duplicate.

[1] = tested on: isolated rat soleus muscle; experiment: Ex vivo model: residual contractile force of isolated rat soleus muscle in high KCl buffer (Na+/K+ATPase activation); conditions: for Mean residual contractile force in % (SEM in %): after 30 min in KCl 12.5 mM buffer
Text: Muscular fatigue and loss of force (e.g., loss of handgrip strength) is a hallmark in ME/CFS patients. A main target of PDE7 inhibition is the skeletal muscle whose energetic function is deeply disturbed in ME/CFS and which is presumed to be very important in the symptomatology of ME/CFS. Insufficient stimulation of the Na^+/K^+ATPase plays a key role in the development of the disturbances by a rise in intramuscular sodium that finally leads to calcium overload. The latter causes a deep functional energetic disturbance or damage. The isolated rat muscle either soleus muscle or extensor digitorum longus muscle is a well-characterized and well-validated model for the study of the function of the Na^+/K^+ATPase. The isolated rat soleus muscle is particularly appropriate for experiments ex vivo as it is very thin so that there is no need for blood supply. […] In the experimental setting used, the high KCl concentration buffer causes partial depolarization that leads to sodium influx to disturb and to decrease excitability to subsequently reduce muscle force. Stimulation of Na^+/K^+ATPase lowers intracellular sodium levels towards physiological levels to restore excitability and muscular force during electrical stimulation.
The decline in force in the soleus muscle can be considered as muscular fatigue and related to the loss of hand grip muscular strength in ME/CFS patients. As the phosphodiesterase isoenzyme subtype 7 (PDE7) is the predominant PDE isoenzyme in skeletal muscle to raise cAMP this ex vivo model is suited for the testing the effect of PDE7 inhibitors and in particular their effect on force generation disturbed by mechanisms that worsen excitability or the energetic situation. […] High level activity of Na^+/K^+ATPase stimulated by cAMP can counteract the decrease in excitability and the loss of force.
Muscle preparation and incubation: Female Sprague Dawley rats of 5 weeks of age were used. After isoflurane anesthesia and cervical dislocation the intact soleus muscles of the animals were dissected. The soleus muscles were mounted at resting length in a vertical position between two field stimulation electrodes (thick copper wires) in organ bathes containing 15 mL incubation medium. The lower end of the muscle was fixed to a clip fixed to the bottom of the organ bath, the upper end of the muscle was fixed to an isometric force transducer (Force transducer K300 Hugo Sachs) by a clip allowing measurement of isometric contractions, and a tension of 100 mN was applied.
Force measurement: The experimental set-up used for force measurements allowed for the simultaneous recordings from 6 muscles in separate incubation chambers in parallel. Force was recorded and stored with a Notocord HEM data acquisition system. […] Incubation took place at 30° C. […] Electrical stimulation protocol: After an equilibration period of 30 min muscles were field-stimulated to deliver optimal force at 83 Hz, 2-3 ms pulses, 12 V (biphasic), 0.2-0.5 s train width with a Hugo Sachs stimulator (HSE). […] Stimulations were then performed every 5 min for 30 min. […] Two control groups were included.
The residual contractile force after 30 min in high KCl buffer was chosen as the efficacy parameter and related to the last value of stimulated force in the initial buffer in the same organ bath. The percentages of residual force were compared between the different groups and used for statistical calculation.

PDE7B = molecular target: T1, PDE7B (Homo sapiens, UniProt Q9NP56); experiment: PDE7 enzymatic assay, IC50 determination (PDE7B); assay type: biochemical; conditions: human recombinant enzyme, 0.1 μM FAM-cAMP, 30 min 25° C.
T1 construct: host or cells: Sf9 insect cells
Procedure: as §1, §2

PDE7A = molecular target: T2, PDE7A (Homo sapiens, UniProt Q13946); experiment: PDE7 enzymatic assay, IC50 determination (PDE7A); assay type: biochemical; conditions: human recombinant enzyme, 0.1 μM FAM-cAMP, 30 min 25° C.
T2 construct: host or cells: Sf9 insect cells
Procedure: as §1, §2

PDE7 enzyme = conditions: cited from earlier work

T1 sequence (Q9NP56 whole entry): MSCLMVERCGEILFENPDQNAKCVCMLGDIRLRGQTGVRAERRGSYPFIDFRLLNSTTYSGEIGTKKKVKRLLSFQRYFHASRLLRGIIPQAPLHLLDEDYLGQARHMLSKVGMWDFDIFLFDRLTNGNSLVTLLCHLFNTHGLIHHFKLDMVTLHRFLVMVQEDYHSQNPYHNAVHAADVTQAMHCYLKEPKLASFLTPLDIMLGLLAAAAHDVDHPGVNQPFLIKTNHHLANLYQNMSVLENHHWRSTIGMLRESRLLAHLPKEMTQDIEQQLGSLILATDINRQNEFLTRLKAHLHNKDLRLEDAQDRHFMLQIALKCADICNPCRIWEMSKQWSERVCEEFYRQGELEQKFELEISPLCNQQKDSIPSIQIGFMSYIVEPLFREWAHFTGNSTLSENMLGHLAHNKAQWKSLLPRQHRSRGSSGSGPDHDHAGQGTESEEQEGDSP
T2 sequence (Q13946 whole entry): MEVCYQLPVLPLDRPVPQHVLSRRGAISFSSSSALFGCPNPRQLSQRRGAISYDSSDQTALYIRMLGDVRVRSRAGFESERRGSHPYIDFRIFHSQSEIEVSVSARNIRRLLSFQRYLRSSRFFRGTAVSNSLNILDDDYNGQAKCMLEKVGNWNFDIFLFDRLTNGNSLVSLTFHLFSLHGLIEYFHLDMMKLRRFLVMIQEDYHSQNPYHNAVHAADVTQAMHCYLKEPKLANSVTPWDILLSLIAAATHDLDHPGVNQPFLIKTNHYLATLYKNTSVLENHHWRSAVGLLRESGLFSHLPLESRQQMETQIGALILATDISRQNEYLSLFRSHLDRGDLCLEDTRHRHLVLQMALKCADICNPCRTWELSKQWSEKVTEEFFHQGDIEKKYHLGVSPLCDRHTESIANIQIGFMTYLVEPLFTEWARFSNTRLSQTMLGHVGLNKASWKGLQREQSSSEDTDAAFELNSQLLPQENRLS

Compound `Cc1nn(C2CCCCC2)c2sc(C(=O)NCC(C)(C)CN3C(=O)CNC3=O)cc12` [Formula No. 6G] has an IC50 (PDE7) of 20 nM.

For `S=c1[nH]c2ccccc2c(=S)n1-c1ccccc1` [Formula No. 42A, 3-phenyl-2,4(1H,3H)-quinazolinedithione], the “Mean residual contractile force in % (SEM in %)” value ([1]; 3.5 μM in the presence of salbutamol 1 μM) was 48.5 (8.6); n = 7; p < 0.05%.

Work on `O=CN1CCC(n2c(=O)n(Cc3ccc(-c4cccs4)cc3)c(=O)c3cc(OC(CF)CF)c(F)cc32)CC1` [Formula No. 55J] yielded an IC50 (PDE7) of less than 100 nM.

In the case of `COc1ccc(Cn2c(=O)c3cc(OC(CF)CF)c(F)cc3n(C3CCN(C=O)CC3)c2=O)cc1OC` [Formula No. 55E], the “Mean residual contractile force in % (SEM in %)” value ([1]; 29 nM in the presence of salbutamol 1 μM) is reported as 69.3 (4.1); n = 5; p < 0.01%, the IC50 (PDE7B) is reported as 83 nM and the IC50 (PDE7A) is reported as 14.2 nM.

`Cc1nn(C2CCCCC2)c2sc(C(=O)Nc3ccc(N4CCNC4=O)nc3)cc12` [Formula No. 6A] showed an IC50 (PDE7) of 20 nM.

Compound `CC(=O)Nc1ccc(NC(=O)c2cc3c(C)nn(C4CCCCC4)c3s2)cc1` [Formula No. 6D] has an IC50 (PDE7) of 37 nM.

Work on `CC(C)Cn1c(=O)n(C)c(=O)c2[nH]cnc21` [IBMX, 3-isobutyl-1-methylxanthine, reference compound] yielded an IC50 (PDE7A) of 10000 nM.

In the case of `COc1ccc(C2CNC(=O)C2)cc1OC1CCCC1` (stereo not shown) [rolipram], the “inhibition of PDE7 by rolipram” value (PDE7 enzyme) is listed as “not inhibited”.

`Cc1nn(C2CCOCC2)c2sc(C(=O)N[C@H]3CC[C@H](N4CCOCC4)CC3)cc12` [Formula No. 6E] showed an IC50 (PDE7) of 24 nM.

With `CC(C)(C)NCC(O)c1ccc(O)c(CO)c1` (stereo not shown) [Salbutamol, reference compound] the “Mean residual contractile force in % (SEM in %)” value ([1]; salbutamol alone 1 μM) was 26.5 (3.9); n = 30%.

For `CC(=O)N1CCN([C@H]2CC[C@H](NC(=O)c3cc4c(C)nn(C5CCOCC5)c4s3)CC2)CC1` [Formula No. 6F], the IC50 (PDE7) was 19 nM.

For `OCCN(CCO)c1nc(N2CCCCC2)c2nc(N(CCO)CCO)nc(N3CCCCC3)c2n1` [Dipyridamole, 2,2′,2″,2′″-[[4,8-Di(piperidin-1-yl)pyrimido[5,4-d]pyrimidine-2,6-diyl]dinitrilo]tetraethanol, reference compound], the “Mean residual contractile force in % (SEM in %)” value ([1]; 30 μM in the presence of salbutamol 1 μM) was 46.3 (6.3); n = 15; p < 0.01%, the “effect on residual contractile force compared with salbutamol alone” value ([1]; test compound plus salbutamol 1 μM, KCl 12.5 mM buffer) was “numerically stronger effect than salbutamol alone” and the IC50 (PDE7A) was 42000 nM.

For `O=C1Nc2c(Cl)ccc(O[C@H]3C[C@H](C(=O)O)C3)c2C2(CCCCC2)N1` [Formula No. 44A], the “Mean residual contractile force in % (SEM in %)” value ([1]; 26 nM in the presence of salbutamol 1 μM) was 63.5 (7.8); n = 6; p < 0.01%, the IC50 (PDE7B) was 72 nM and the IC50 (PDE7A) was 26 nM.

`O=C1Nc2c(Cl)ccc(Oc3ccccc3-c3nnn[nH]3)c2C2(CCCCC2)N1` [Formula No. 35A] showed an IC50 (PDE7B) of 0.9 nM and an IC50 (PDE7A) of 0.3 nM.

In the case of `Cc1ccc([N+](=O)[O-])cc1S(=O)(=O)N(C)C` [Formula No. 8A], the “Mean residual contractile force in % (SEM in %)” value ([1]; 4.5 μM in the presence of salbutamol 1 μM) is reported as 80.2 (6.0); n = 15; p < 0.001%.

`Cc1nn(C2CCCCC2)c2sc(C(=O)N[C@H](C)CN3C(=O)CNC3=O)cc12` [Formula No. 6H] gave an IC50 (PDE7) of 34 nM.

For `Cc1nn(C2CCCCC2)c2sc(C(=O)Nc3ccc(C(=O)N(C)C)cc3)cc12` [Formula No. 6C], the IC50 (PDE7) was 14 nM.

In the case of `CNC(=O)c1ccc(NC(=O)c2cc3c(C)nn(C4CCCCC4)c3s2)cn1` [Formula No. 6B], the “Mean residual contractile force in % (SEM in %)” value ([1]; 0.99 μM in the presence of salbutamol 1 μM) is reported as 50.7 (3.6); n = 6; p < 0.05%, the IC50 (PDE7B) is reported as 53 nM and the IC50 (PDE7A) is reported as 11.1 nM. It also gave an IC50 (PDE7) of 33 nM.
